Data from PMC9436767, “Optical control of the β2-adrenergic receptor with opto-prop-2: A cis-active azobenzene analog of propranolol” (iScience, 2022).
Values joined by “and” are separate entries in the source; they are usually repeats but may differ in a detail not shown here. Identical values can stand only once.

Legend:
[1] = PSScis and PSStrans by LC analysis; assay type: physicochemical; settings: for PSScis (% cis-isomer): 10 mM in DMSO after illumination with 360 nm; for PSScis (% cis-isomer) / PSStrans (% cis-isomer): LCMS area at isosbestic wavelength; for PSStrans (% cis-isomer): 10 mM in DMSO, 360 nm then 434 nm
Description: (§1) Solubility in buffer was explored for all compounds using nephelometry ([Bevan and Lloyd, 2000]) and these studies indicate good solubility of all azobenzene photoswiches up to at least 100 μM (Figure S1). […] For all compounds, 360 nm induces a large change in absorbance spectrum compared with the non-illuminated (dark) compounds (Table 1, Figure 2A, and S1), indicating photoisomerization to the cis-isomer. The absorbance peak (λmax) of Opto-prop-1-3 ranged between 319 and 347 nm for the trans-isomers and between 423 and 429 for the cis-isomers (Table 1), as is typical for azobenzene compounds ([Hauwert et al., 2018]). […] The photochemical conversions were determined by continuous illumination of the Opto-prop compounds with near UV-light (360 ± 20 nm) as 10-mM solutions in DMSO. Based on LCMS analysis, it was observed that all compounds obtained a high level of conversion to the cis-isomer with a photostationary state (PSS) of >88 area % cis-isomer (i.e. PSScis; Table 1). Subsequent back-switching to PSStrans with 434 nm maintained 22–29 area % cis-isomer (Table 1). The thermal relaxation of the PSScis state of the photoswitchable ligands was monitored over time by measuring absorbance at 254 nm. Only minor thermal relaxation to the trans-isomer could be detected at 20°C (not shown). An estimate of the relaxation rate at 20 °C was determined using a method by Priimagi et al. ([Ahmed et al., 2017]), which was performed in Hanks’ balanced salt solution (HBSS) using increased temperatures to enhance the speed of thermal relaxation. The Opto-prop ligands are all very stable as cis-isomer after illumination, with thermal relaxation half-lives of >10 days at 20 °C (See Table 1 and Figure S1).
For the determination of PSScis and PSStrans values by LC analysis (Table 1), a solution of the compound in DMSO (10 mM) was illuminated to PSScis with 360 nm and subsequently to PSStrans with 434 nm. PSS aliquots were withdrawn, diluted with MeCN and subjected to LCMS analysis with the corresponding isosbestic points wavelength: 278, 263 and 308 nm for Opto-prop-1-3, respectively.

[2] = UV-Vis absorbance spectra; assay type: physicochemical; settings: 25 μM in HBSS buffer with 1% DMSO; for λmax cis: cis-isomer; for λmax trans: trans-isomer
Description: as §1
UV-Vis spectra were obtained using a Thermo-scientific Evolution 201 PC spectrophotometer. Illumination was executed using a Sutter instruments Lambda LS with a 300 Watt full-spectrum lamp connected to a Sutter instruments Lambda 10-3 optical filter changer equipped with 360 ± 20 nm, 400 ± 5 nm, 434 ± 9 nm and 460 ± 5 nm filters. The light intensity is 0.93 mW/mm^2 using the 360 ± 20 nm filter, 0.22 mW/mm^2 using the 400 ± 5 nm filter, 0.79 mW/mm^2 for the 434 ± 9 nm filter and 0.26 mW/mm^2 for the 460 ± 5 nm filter as measured using a Thorlabs PM16-401 power meter.
For the determination of the UV-Vis spectra shown in Figure 2A, compounds (25 μM in 1% DMSO/HBSS buffer) were illuminated in Hellma Suprasil quartz 114-QS cuvettes with either a 360, 400, 434 or 460 nm filter for the indicated time. For the determination of PSScis and PSStrans states by UV spectroscopy (Figures S1D–S1F), a solution of the compound in 1% DMSO/HBSS buffer (25 μM) in a vial was illuminated to PSS cis with 360 nm (typically 4–5 min) and subsequently to PSS trans with 434 nm (typically 2–5 min). UV spectra were recorded.

β2-AR [3] = biological target: T1, β2-AR (Homo sapiens, UniProt P07550); assay: [3H]DHA radioligand displacement on membranes of HEK293T cells expressing β2-AR; settings: for fold Ki trans vs PSScis at β2-AR: fold difference between Ki of trans and Ki at PSScis; for Active state at β2-AR: isomer state with higher affinity; for Ki: β2-AR; for selectivity in binding β2-AR over β1-AR: cis-isomer (PSScis)
Target sequence in this assay (P07550 whole entry): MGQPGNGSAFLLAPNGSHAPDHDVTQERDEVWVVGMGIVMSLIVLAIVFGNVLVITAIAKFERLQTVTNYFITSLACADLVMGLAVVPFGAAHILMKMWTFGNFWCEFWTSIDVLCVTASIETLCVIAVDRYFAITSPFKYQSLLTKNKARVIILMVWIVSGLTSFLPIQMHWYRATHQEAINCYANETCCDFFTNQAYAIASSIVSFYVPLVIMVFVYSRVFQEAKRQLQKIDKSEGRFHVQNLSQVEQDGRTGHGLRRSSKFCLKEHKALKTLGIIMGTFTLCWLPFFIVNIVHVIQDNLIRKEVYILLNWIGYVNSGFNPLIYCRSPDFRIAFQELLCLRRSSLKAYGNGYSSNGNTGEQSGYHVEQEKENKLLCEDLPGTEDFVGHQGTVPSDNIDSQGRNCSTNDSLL
Description: (§5) Membranes of HEK293T-cells transiently expressing the receptor of interest were co-incubated with the tritiated β1/β2-AR antagonist dihydroalprenolol ([^3H]DHA, Figure S2 depicts saturation binding experiments), together with increasing concentrations of the competing unlabeled ligand.
(§6) Two million HEK293T cells were seeded in a 10cm^2 dish and were transiently transfected the next day with 1 μg human β1-AR or the β2-AR plasmid DNA, 4 μg empty pcDEF3 plasmid DNA and 30 μg linear 25 kDa polyethyleneimine (PEI; Polysciences Warrington, USA) in a 150 mM NaCl solution. […] Two days after transfection, cells were resuspended and washed (3 times) with PBS and pelleted by centrifugation steps at 1500 g. After the final centrifugation step, cell pellets were reconstituted into ice-cold Tris-HCl buffer (15 mM, supplemented with 0.3 mM EDTA and 2 mM MgCl2 at pH7.4) and dounce-homogenised by plunging the pestle 10 times with 1,500 rpm (Tamson, the Netherlands). The homogenates were frozen and thawed twice using liquid nitrogen, after which the membranes were isolated using an ultra-centrifuge L70 at 40,000 g (Beckman Coulter, USA). Cell pellets were then washed and reconstituted in ice-cold 20 mM Tris-HCl buffer supplemented with 250 mM Sucrose at pH 7.4. Finally, the membrane samples where homogenized using a 23-gauge needle, snap-frozen with liquid nitrogen and stored until further experimentation at −80 °C. The protein content was determined using a BCA protein assay kit (Thermo Scientific, USA).
(§7) On the day of the experiment 0.25–0.5 μg membranes expressing either the β1-AR or the β2-AR, were co-incubated with [^3H]DHA (Perkin Elmer, USA) and increasing concentrations unlabeled ligand in HBSS buffer (Thermo Scientific, with Ca^2+ and Mg^2+) supplemented with 0.1% BSA for 1 h at 25 °C under gentile agitation. Either a 4 nM or 1 nM concentration of [^3H]DHA was used in combination with membranes expressing either the β1-AR or β2-AR, respectively. Binding reactions were terminated by filtration over a PEI coated GF/C filter (Perkin Elmer) using ice-cold 50 mM Tris-HCl buffer with 500 mM NaCl at pH 7.4. GF/C plates were dried at 52 °C and filter bound [^3H]DHA was quantified by adding 25 μL/well Microscint-O scintillation liquid and counting luminescence using the Wallac Microbeta counter, as described before.
(§8) IC50 values were determined by fitting the concentration-dependent displacement of [^3H]DHA by unlabeled ligands, with a three-parameter sigmoidal model in GraphPad Prism. […] Competition binding graphs represent the pooled data of ≥3 experiments, normalized to the fitted top and bottom of the reference sigmoidal displacement curve of unlabeled DHA.

β1-AR [4] = biological target: T2, β1-AR (Homo sapiens, UniProt P08588); assay: [3H]DHA radioligand displacement on membranes of HEK293T cells expressing β1-AR; settings: for fold Ki trans vs PSScis at β1-AR: fold difference between Ki of trans and Ki at PSScis; for Active state at β1-AR: isomer state with higher affinity
Description: as §5, §6, §7, §8

[5] = Cis-to-trans thermal relaxation, Arrhenius extrapolation; assay type: physicochemical; settings: PSScis sample 25 μM in HBSS buffer with 1% DMSO; Arrhenius extrapolation to 20 °C
Description: as §1
Cis-to-trans thermal relaxations were performed in the dark at 25 μM of the PSS360 state of the Opto-prop-1, -2 or -3 in HBSS buffer with 1% DMSO at various temperatures (60°C, 70°C and 80°C). Absorbance was repeatedly measured at 320, 320 and 347 nm for Opto-prop-1, -2 or -3, respectively, with 60 s intervals.

β1-AR [6] = biological target: T2, β1-AR; assay: Saturation binding of [3H]dihydroalprenolol, β1-AR membranes; parameters: host or cells: HEK293T, transient; membranes; settings: HEK293T membranes
Description: (§2) Figure S2. Saturation binding of [3H]dihydroalprenolol t o the β1 and β2 adrenergic rec eptors, related to Figure 3. Increasing concentrations [3H]dihydroalprenolol were incubated with membranes of HEK293T cells transiently expressing either the β1-AR (A) or β2-AR (B). Both the radioligand concentration and bound radioligand were quantified by scintillation counting. Data represent the po o led m ean ± SD of 4 experiments. Binding affinities (pKd) of [3H]dihydroalprenolol were determined by fitting the data in each individual experiment. […]
(§3) and a Bmax value of 33 ± 19 pmol/mg at membranes expressing the β2-AR.
(§4) (1 picture or pasted object on this page, not shown here)

β2-AR [7] = biological target: T1, β2-AR; assay: Saturation binding of [3H]dihydroalprenolol, β2-AR membranes; parameters: host or cells: HEK293T, transient; membranes; settings: HEK293T membranes
Description: as §2, §3, §4
Target sequence in this assay (P07550 whole entry): as above

[8] = system: isolated adult rat cardiomyocytes; assay: Contractility (sarcomere shortening) of paced isolated cardiomyocytes; assay type: cell-based; settings: paced at 2 Hz; for effect on isoprenaline-enhanced contractility: 1 μM with 15 nM isoprenaline
Description: To evaluate Opto-prop-2 in a relevant biological system with endogenous levels of the native receptor proteins, it was tested using isolated adult rat cardiomyocytes. Cardiomyocytes were paced at 2Hz, inducing contractions that were quantified by measuring the sarcomere length over time (Figure 6A). […] This enhanced contractility was attenuated by co-incubating with cis-Opto-prop-2 (magenta line) but not by trans-Opto-prop-2 (teal line) at 1 μM concentrations.
Intact adult cardiomyocytes were isolated from 3 adult wild-type Wistar rats weighing 200–250 g as described previously. ([Nollet et al., 2020]; [van Deel et al., 2017]) Briefly, rats were sedated and anesthesized by isoflurane inhalation. The heart was removed and perfused in a Langendorff setup with Liberase TM (Roche) digestive enzymes and the left ventricle was consequently cut into small pieces and resuspended in stopping buffer. This mixture was passed over a 300 μm nylon mesh filter, isolated cells in the filtrate were resuspended in buffer containing 1mM CaCl2. Cells were suspended in plating medium composed of Medium 199 (Lonza), 1% penicillin/streptomycin and 5% bovine serum and plated on a laminin coated dish (10 μg/mL, Sigma-Aldrich). The cells were incubated for 1 h at 37 °C in humidified air with 5% CO2 to let them attach to the coated dish. Afterwards, non-attached cells were removed by washing cells with pre-heated Tyrode solution (137 mM NaCl, 5.4 mM KCl, 3 mM sodium pyruvate, 5 mM HEPES, 0.57 mM MgCl2, 0.33 mM NaH2PO4, 1.0 mM CaCl2 and 5.6 mM glucose, pH 7.4 at 37 °C). Contractility measurements were performed at 37 °C using the Multi-Cell system (CytoCypher, the Netherlands). Cells were treated to vehicle (DMSO), 15 nM isoproterenol alone or in combination with 1 μM of propranolol or Opto-prop-2 (either with or without prior illumination). […]
Changes in sarcomere length were recorded with a high-speed camera and Ionoptix software (Ionoptix, Westwood MA, USA). The contractility profiles were analyzed with the automated, batch analysis software ‘Transient Analysis Tools’ (CytoCypher, Amsterdam, NL). […]

β2-AR [9] = biological target: T1, β2-AR; assay: Conformational β2-AR BRET sensor in HEK293A cells
Target sequence in this assay (P07550 1-369): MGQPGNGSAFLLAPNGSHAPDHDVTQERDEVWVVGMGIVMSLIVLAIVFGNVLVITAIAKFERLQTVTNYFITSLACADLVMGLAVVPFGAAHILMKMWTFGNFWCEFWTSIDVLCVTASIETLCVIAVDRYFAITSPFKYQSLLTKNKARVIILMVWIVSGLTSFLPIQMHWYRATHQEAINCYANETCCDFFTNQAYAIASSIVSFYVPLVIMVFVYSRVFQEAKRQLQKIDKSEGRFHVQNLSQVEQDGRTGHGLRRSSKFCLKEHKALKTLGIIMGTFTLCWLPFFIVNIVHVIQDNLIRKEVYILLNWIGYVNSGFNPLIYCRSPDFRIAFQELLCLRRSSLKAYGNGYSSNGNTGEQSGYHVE
Description: The next day, cells were washed with HBSS and incubated with a 1/1000 stock solution of furimazine. […] Wells pre-incubated with 0.1% DMSO/HBSS control were treated with vehicle control.
Raw BRET ratios were defined as acceptor emission/donor emission.
Antagonist pKB values were calculated using the agonist potency and concentration together with the antagonist IC50 values, using the Cheng-Prusoff equation.

[10] = pKi PSScis, illuminated to PSScis (360 nm) before experiment
[11] = pKi trans, without prior illumination (trans-isomer)
[12] = pKi PSScis, β1-AR, illuminated to PSScis (360 nm) before experiment
[13] = pKi trans, β1-AR, without prior illumination (trans-isomer)

T2 sequence (P08588 whole entry): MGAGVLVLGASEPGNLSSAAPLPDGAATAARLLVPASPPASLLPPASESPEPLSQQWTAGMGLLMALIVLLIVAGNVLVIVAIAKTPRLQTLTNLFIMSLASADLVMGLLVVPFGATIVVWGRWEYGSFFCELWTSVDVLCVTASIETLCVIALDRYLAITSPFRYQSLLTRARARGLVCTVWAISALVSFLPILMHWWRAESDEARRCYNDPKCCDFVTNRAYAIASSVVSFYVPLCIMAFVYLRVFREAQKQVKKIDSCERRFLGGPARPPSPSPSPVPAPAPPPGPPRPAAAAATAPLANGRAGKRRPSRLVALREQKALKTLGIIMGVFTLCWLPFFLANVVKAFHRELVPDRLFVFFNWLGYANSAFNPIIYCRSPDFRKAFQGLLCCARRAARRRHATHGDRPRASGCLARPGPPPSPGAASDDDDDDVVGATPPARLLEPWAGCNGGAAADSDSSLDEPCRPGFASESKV

For `CC(C)NCC(O)COc1ccccc1/N=N/c1ccccc1` (stereo not drawn) [Opto-prop-1], the “PSScis (% cis-isomer)” value [1] was 88.9 ± 1.0 % cis-isomer, the “PSStrans (% cis-isomer)” value [1] was 28.8 ± 0.3 % cis-isomer and the λmax cis [2] was 423 nm. The λmax trans [2] was 321 nm, the “selectivity β2-AR over β1-AR” value (β2-AR [3]; both isomers) was at least 10 fold and the “fold Ki trans vs PSScis at β2-AR” value (β2-AR [3]) was 4 fold and 4.3 fold. For the same compound, the “Active state at β2-AR” value (β2-AR [3]) was “trans”, the Ki (β2-AR [3]; [10]) was 3.16 nM and the Ki (β2-AR [3]; [11]) was 0.794 nM. For the same compound, the Ki (β1-AR [4]; Ki at β1-AR, trans-isomer) was under 13 nM, the “fold Ki trans vs PSScis at β1-AR” value (β1-AR [4]) was 9 fold and 9.4 fold and the “Active state at β1-AR” value (β1-AR [4]) was “trans”. For the same compound, the Ki (β1-AR [4]; [12]) was 79.4 nM, the Ki (β1-AR [4]; [13]) was 7.94 nM and the “t1/2 20°C (thermal relaxation of cis-isomer)” value [5] was over 240 h.
In the case of `CC(C)NCC(O)COc1ccc(/N=N/c2ccccc2)cc1` (stereo not drawn) [Opto-prop-3], the “PSScis (% cis-isomer)” value [1] is reported as 93.8 ± 0.6 % cis-isomer, the “PSStrans (% cis-isomer)” value [1] is reported as 21.5 ± 0.1 % cis-isomer and the “trans-content at PSStrans” value ([1]; 434 nm) is reported as 78.5%. The λmax cis [2] was 429 nm, the λmax trans [2] was 347 nm and the “fold Ki trans vs PSScis at β2-AR” value (β2-AR [3]) was 2.6 fold. For the same compound, the “Active state at β2-AR” value (β2-AR [3]) was “cis”, the Ki (β2-AR [3]; [10]) was 3980 nM and the Ki (β2-AR [3]; [11]) was 10000 nM. For the same compound, the Ki (β1-AR [4]; Ki at β1-AR, trans-isomer) was under 13 nM, the “selectivity β1-AR over β2-AR” value (β1-AR [4]; both isomers) was at least 10 fold and the “fold Ki trans vs PSScis at β1-AR” value (β1-AR [4]) was 18 fold. The “Active state at β1-AR” value (β1-AR [4]) was “trans”, the Ki (β1-AR [4]; [12]) was 200 nM and the Ki (β1-AR [4]; [13]) was 12.6 nM. The “t1/2 20°C (thermal relaxation of cis-isomer)” value [5] was over 240 h.
With `CCCc1ccccc1OCC(O)CNC(C)C` (stereo not drawn) [[3H]dihydroalprenolol, dihydroalprenolol] the “Bmax, β1-AR membranes” value (β1-AR [6]) was 56 ± 16 pmol/mg and the “Bmax, β2-AR membranes” value (β2-AR [7]) was 33 ± 19 pmol/mg.
With `CC(C)NCC(O)COc1ccccc1/N=N\c1ccccc1` (stereo not drawn) [cis-Opto-prop-1] the “selectivity in binding β2-AR over β1-AR” value (β2-AR [3]) was 21 fold.
In the case of `CC(C)NCC(O)COc1cccc(/N=N\c2ccccc2)c1` (stereo not drawn) [cis-Opto-prop-2], the “effect on isoprenaline-enhanced contractility” value [8] is reported as “attenuated”, the “increase in β2-AR affinity upon 360 nm illumination” value (β2-AR [3]; cis vs trans) is reported as about 3 log-units and the “selectivity in binding β2-AR over β1-AR” value (β2-AR [3]) is reported as 78 fold.
With `CC(C)NCC(O)c1ccc(O)c(O)c1` (stereo not drawn) [isoprenaline, reference compound] the “effect on sarcomere shortening” value ([8]; 15 nM) was “further increased the shortening of the sarcomeres”.
With `CC(C)NCC(O)COc1cccc(/N=N/c2ccccc2)c1` (stereo not drawn) [trans-Opto-prop-2] the “effect on isoprenaline-enhanced contractility” value [8] was “not”, the “fold Ki trans vs PSScis at β2-AR” value (β2-AR [3]) was 587 fold and the IC50 (β2-AR [9]) was 1000 nM.
With `CC(C)NCC(O)COc1ccc(/N=N/c2ccccc2)cc1` (stereo not drawn) [trans-Opto-prop-3] the “selectivity in binding affinity β1-AR over β2-AR” value (β1-AR [4]; trans-isomer) was 813 fold.
